In ChEMBL document CHEMBL1201862, “PubChem BioAssay data set” (2004):
The source made the active and inactive calls.

How the values were obtained:
[1] = HEK-293T viability loss after treatment – luminescence, T-cell screen hits, cytotoxicity control for TCR NF-kB inhibitor project, dose response (AID 489026); type: functional, cell-based;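 further: cells exposed to compound about 14 hours before the viability readout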
Nonstructural protein 1 = Nonstructural protein 1 (Influenza A virus, UniProt Q194T2); type: functional, Influenza A virus (A/California/07/2009(H1N1))
Protein skinhead-1 = molecular target: T1, Protein skinhead-1 (Caenorhabditis elegans, UniProt P34707); type: functional
T1 sequence (P34707 whole entry): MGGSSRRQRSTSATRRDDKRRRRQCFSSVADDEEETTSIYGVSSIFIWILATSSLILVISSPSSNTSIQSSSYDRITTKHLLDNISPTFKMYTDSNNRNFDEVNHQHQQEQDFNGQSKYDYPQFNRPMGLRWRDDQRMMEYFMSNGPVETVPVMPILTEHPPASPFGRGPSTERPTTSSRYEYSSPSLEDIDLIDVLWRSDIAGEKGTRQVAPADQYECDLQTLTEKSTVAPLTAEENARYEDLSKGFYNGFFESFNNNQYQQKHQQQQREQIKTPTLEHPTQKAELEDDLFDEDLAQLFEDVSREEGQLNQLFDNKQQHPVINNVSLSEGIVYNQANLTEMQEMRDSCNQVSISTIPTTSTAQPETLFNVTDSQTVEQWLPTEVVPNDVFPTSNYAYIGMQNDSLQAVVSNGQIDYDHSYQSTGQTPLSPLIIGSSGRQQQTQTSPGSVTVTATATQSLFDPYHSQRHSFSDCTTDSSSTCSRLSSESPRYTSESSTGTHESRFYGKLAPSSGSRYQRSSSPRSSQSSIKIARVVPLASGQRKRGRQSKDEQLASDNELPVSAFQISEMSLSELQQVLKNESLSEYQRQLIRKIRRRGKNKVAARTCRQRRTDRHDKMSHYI

Fatty acid synthase = Fatty acid synthase (Homo sapiens, UniProt P49327); experiment: inhibition of human FAS-TE enzyme activity – biochemical, kinetic fluorescence intensity, dose response (AID 624326); type: functional;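 further: rate of fluorescence rise from hydrolysis of a fluorogenic O-methyl fluorescein ester substrate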
[2] = molecular target: Induced myeloid leukemia cell differentiation protein Mcl-1 (Homo sapiens, UniProt Q07820); type: functional
[3] = viability of uninfected HEp-2 cells – cell-based, HTS, cytotoxicity control for RSV inhibitor project, dose response (AID 2410); type: functional; conditions: human respiratory syncytial virus
Cytochrome P450 2C9 = Cytochrome P450 2C9 (Homo sapiens, UniProt P11712)
[4] = system: Streptococcus sp. 'group A'; experiment: Streptococcus pyogenes SK(-)GAS viability under kanamycin – luminescence, BacTiterGlo, confirmation, counter-screen for streptokinase expression inhibitor project, dose response (AID 1900); type: functional, organism-based
Streptococcus = experiment: GAS UMAA2166 growth inhibition – luminescence, BacTiterGlo, counter-screen for streptokinase expression inhibitor project, dose response (AID 1915); type: functional, organism-based;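 further: potency for reduction of bacterial viability or growth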
Large T antigen = Large T antigen (Simian virus 40, UniProt P03070); type: functional, Betapolyomavirus macacae;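 further: Confirmatory-stage PubChem screen for compounds that inhibit SV40 T antigen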
[5] = luciferase reporter signal suppression in cells – H4 neuroglioma cells, luminescence, dose response (AID 1990); type: functional, cell-based
[6] = Luminescence Cell-Based Dose Response HTS to Identify Inhibitors of 5'UTR Stem-Loop Driven Prion Protein mRNA Translation in H4 Neuroglioblastoma Cells. [Related pubchem assays: 1827 (Project Summary), 1813 (Primary HTS)]; type: functional
[7] = alpha-synuclein stem-loop luciferase translation blockers – H4 neuroglioma cells, luminescence, confirmation (AID 1988); type: functional, cell-based
[8] = Trypanosoma cruzi growth suppression in host cells – NIH3T3 host cells, beta-gal luminescence, confirmation (AID 2044); type: functional, cell-based;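 further: intracellular parasites grown in NIH/3T3 mouse fibroblasts as host cells; luminescent beta-galactosidase reporter signal from transgenic T. cruzi replicating inside host cells; inhibitors lower the luminescence signal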
[9] = NIH3T3 cell viability loss – ATP luminescence, mouse fibroblasts, counter-screen, dose response (AID 2010); type: functional, cell-based;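 further: cells exposed to compound for about 90 hours before reading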
cells = type: functional
[10] = molecular target: Heat shock protein HSP 90-alpha (Homo sapiens, UniProt P07900); type: functional, organism-based
[11] = HIV-1 AD8 envelope cell-cell fusion blockers – cherry-pick, dose response (AID 652062); type: functional, cell-based;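 further: luciferase signal from cell-cell fusion driven by HIV-1 clade B AD8 Env; potency is for inhibitors of fusion seen as a drop in luminescence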
Cytochrome P450 3A4 = Cytochrome P450 3A4 (Homo sapiens, UniProt P08684);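 further: CYP3A4 tested as one member of a cytochrome P450 panel screen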
[12] = intracellular Trypanosoma cruzi inhibitors in host cells – cell-based, plate reader, cherry-pick samples, set 3, dose response (AID 651818); type: functional;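 further: compounds incubated with infected cells for about four days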
[13] = blockers of HIV-1 envelope-mediated cell-cell fusion – cherry-pick, dose response (AID 652057); type: functional, cell-based
[14] = blockers of HIV-1 ZM109 envelope-driven cell-cell fusion – HeLa effector, CEM target cells, luciferase, cherry-pick, dose response (AID 652058); type: functional, cell-based;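 further: luciferase signal from HIV-1 Env mediated cell-cell fusion of effector and target cells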
[15] = P. falciparum Dd2 growth inhibitors, dose response, SYBR Green, cherry-picked samples (AID 1159567); type: functional, cell-based
[16] = NIH-3T3 fibroblast cytotoxicity, dose response, cytotoxicity control, cell-based, fluorescence, Alamar Blue, secondary assay (AID 2327); type: functional;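 further: NIH-3T3 mouse fibroblasts cultured with fluconazole at 8 µg/mL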
Streptokinase A = molecular target: T2, Streptokinase A (Streptococcus pyogenes serotype M1, UniProt P10520); experiment: viability-normalized secreted streptokinase activity reduction – plasminogen activation absorbance, OD405, dose response (AID 1914); type: functional, Streptococcus pyogenes M1 GAS;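 further: secreted streptokinase activity via plasminogen activation per viability signal from cell pellet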
T2 sequence (P10520 whole entry): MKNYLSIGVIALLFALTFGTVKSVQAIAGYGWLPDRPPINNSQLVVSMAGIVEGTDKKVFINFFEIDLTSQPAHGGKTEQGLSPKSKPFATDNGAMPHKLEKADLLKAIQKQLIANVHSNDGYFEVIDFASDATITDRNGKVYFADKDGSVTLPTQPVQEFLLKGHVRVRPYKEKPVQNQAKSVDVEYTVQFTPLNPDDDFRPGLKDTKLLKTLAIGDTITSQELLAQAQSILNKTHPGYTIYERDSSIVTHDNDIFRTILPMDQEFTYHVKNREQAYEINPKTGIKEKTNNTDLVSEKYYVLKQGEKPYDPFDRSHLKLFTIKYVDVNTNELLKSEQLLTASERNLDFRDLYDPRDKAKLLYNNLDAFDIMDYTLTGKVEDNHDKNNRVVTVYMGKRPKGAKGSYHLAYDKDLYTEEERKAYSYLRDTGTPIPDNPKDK

[17] = fluconazole-exposed Candida albicans growth modulators – fluorescence, retest, confirmation (AID 2467); type: functional, cell-based

Nonstructural protein 1, sequence (Q194T2 whole entry): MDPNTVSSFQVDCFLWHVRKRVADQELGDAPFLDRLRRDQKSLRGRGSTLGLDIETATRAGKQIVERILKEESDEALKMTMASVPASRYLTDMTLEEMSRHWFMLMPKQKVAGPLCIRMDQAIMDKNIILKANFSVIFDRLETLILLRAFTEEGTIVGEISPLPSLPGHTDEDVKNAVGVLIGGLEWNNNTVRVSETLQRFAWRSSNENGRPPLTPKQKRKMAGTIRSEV
Induced myeloid leukemia cell differentiation protein Mcl-1, sequence (Q07820 whole entry): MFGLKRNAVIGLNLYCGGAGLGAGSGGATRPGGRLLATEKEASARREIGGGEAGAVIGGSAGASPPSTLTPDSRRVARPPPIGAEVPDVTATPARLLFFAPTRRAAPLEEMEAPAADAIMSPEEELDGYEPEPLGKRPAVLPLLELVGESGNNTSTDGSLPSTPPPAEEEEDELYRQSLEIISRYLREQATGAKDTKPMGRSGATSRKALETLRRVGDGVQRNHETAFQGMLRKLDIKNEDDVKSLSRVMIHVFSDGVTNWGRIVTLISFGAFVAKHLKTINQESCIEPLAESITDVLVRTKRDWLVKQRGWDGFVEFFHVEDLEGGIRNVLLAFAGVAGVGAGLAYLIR
Cytochrome P450 2C9, sequence (P11712 whole entry): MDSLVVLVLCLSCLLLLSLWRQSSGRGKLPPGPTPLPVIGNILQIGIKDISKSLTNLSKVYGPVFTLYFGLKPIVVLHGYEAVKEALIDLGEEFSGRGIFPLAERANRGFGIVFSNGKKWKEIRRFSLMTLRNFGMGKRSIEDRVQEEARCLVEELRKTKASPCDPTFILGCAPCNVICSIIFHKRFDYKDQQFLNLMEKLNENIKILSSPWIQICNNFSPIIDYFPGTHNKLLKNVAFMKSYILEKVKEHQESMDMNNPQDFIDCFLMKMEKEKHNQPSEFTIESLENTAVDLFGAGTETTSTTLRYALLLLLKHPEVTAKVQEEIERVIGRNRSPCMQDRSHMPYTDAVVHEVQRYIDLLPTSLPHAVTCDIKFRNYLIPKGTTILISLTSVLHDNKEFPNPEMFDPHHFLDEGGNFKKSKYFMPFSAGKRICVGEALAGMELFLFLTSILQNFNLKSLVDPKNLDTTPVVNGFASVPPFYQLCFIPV
Fatty acid synthase, sequence (P49327 whole entry): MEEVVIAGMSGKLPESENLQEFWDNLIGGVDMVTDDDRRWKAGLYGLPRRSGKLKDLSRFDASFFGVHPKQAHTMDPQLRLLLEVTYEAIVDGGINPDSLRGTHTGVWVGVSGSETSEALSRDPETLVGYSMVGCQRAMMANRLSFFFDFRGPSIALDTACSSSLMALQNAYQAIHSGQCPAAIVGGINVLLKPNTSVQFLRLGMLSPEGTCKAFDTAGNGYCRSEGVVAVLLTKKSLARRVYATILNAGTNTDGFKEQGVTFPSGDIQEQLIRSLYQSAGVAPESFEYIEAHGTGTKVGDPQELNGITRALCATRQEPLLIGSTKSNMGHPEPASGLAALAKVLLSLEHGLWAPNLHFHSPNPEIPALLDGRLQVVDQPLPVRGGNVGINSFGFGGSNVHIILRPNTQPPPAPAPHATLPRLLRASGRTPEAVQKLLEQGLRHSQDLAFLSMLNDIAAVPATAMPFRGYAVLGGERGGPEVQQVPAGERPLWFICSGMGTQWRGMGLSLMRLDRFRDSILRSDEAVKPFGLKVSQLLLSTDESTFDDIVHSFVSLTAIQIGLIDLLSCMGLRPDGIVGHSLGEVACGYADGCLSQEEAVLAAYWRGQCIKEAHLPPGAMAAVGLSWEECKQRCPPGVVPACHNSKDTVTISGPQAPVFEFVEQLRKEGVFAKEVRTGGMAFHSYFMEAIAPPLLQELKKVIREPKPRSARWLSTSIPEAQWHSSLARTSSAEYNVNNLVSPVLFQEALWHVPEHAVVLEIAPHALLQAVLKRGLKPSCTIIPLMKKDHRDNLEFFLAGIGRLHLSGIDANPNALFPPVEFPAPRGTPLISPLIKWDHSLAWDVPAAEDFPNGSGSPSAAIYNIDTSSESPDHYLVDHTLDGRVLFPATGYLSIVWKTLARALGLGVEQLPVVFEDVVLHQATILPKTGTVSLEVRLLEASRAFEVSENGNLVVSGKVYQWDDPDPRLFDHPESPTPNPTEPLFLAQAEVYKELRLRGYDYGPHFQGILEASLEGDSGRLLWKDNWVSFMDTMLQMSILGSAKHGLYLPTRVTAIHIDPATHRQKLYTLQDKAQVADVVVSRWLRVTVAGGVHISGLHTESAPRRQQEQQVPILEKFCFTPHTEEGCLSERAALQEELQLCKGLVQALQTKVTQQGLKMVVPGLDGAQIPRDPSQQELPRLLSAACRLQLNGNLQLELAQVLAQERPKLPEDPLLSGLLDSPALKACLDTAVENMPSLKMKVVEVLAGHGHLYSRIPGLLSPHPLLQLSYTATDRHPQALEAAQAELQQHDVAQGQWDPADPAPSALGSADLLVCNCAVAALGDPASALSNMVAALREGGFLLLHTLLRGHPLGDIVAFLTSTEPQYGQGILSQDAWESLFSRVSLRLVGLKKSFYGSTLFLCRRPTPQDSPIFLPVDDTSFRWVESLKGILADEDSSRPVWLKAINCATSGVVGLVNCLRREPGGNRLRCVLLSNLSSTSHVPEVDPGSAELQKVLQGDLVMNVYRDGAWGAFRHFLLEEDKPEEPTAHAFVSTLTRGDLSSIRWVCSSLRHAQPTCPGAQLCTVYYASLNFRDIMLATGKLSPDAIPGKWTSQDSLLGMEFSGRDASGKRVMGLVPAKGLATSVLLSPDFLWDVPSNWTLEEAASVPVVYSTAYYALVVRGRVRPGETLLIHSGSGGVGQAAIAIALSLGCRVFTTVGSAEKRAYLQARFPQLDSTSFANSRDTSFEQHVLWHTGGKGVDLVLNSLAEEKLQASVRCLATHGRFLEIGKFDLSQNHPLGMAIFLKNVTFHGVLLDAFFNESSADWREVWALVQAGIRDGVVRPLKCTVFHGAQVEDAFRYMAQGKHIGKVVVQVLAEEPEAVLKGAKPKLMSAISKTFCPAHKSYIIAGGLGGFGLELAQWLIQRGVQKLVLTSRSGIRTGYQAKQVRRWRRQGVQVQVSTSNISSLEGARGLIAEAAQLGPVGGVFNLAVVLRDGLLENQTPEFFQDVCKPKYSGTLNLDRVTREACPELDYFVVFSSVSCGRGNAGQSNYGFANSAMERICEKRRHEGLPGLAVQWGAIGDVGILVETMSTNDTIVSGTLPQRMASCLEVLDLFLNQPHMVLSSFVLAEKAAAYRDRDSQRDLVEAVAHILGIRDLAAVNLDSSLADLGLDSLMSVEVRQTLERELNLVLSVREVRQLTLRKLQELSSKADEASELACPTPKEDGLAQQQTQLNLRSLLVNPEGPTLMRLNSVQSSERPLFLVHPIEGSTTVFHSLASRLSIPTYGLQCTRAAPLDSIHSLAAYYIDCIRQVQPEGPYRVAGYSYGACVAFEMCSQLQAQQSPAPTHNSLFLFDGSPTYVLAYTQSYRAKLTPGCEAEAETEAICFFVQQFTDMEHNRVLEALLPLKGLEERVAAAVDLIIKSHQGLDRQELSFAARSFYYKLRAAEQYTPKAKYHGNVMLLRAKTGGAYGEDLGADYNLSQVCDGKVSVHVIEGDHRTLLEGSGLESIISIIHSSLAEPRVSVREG
Cytochrome P450 3A4, sequence (P08684 whole entry): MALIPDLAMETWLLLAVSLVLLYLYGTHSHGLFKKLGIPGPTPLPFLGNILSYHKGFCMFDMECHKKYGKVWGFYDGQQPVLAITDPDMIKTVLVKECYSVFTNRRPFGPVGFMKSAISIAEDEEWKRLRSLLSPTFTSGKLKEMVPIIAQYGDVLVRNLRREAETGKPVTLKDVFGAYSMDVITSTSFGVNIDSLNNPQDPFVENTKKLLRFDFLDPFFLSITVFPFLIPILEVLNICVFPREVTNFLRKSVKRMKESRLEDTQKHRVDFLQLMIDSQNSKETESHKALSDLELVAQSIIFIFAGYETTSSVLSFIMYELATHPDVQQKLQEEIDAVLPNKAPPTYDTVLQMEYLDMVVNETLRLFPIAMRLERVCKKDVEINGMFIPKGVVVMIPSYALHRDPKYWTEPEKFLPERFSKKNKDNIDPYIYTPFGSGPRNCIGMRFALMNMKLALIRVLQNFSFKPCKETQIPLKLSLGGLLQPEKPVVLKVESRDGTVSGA
Large T antigen, sequence (P03070 whole entry): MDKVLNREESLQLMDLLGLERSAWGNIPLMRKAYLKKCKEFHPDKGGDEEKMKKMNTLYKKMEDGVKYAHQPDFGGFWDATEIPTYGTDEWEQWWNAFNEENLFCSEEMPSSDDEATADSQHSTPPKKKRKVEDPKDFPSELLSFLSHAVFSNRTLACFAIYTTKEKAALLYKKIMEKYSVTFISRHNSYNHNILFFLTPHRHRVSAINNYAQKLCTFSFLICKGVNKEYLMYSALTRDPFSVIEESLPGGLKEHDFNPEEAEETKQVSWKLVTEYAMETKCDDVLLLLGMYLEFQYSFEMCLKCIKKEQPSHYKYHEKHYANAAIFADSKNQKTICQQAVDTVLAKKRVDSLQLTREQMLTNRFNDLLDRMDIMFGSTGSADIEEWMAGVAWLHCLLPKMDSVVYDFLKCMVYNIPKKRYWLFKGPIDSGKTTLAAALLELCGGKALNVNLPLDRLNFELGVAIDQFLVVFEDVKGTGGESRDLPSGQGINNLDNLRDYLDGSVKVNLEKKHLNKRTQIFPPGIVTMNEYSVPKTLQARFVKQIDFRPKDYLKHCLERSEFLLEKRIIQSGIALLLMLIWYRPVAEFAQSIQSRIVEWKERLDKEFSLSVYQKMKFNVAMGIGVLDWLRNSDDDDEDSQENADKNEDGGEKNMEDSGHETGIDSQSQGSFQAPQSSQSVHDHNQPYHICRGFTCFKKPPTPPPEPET

## COc1ccc(S(=O)(=O)Nc2cccc(-c3ccc4nncn4n3)c2)cc1F
[1]
  IC50: > 80 µM (inactive)

## O=C(NCCCn1ccnc1)C(=O)NCC(c1cccnc1)N1CCN(c2ccc(F)cc2)CC1 (stereo not drawn)
Nonstructural protein 1
  IC50: > 100 µM (active)

## CC(=O)NC(Cc1ccc(F)cc1)C(=O)N1CCN(C(=O)NCc2ccccc2)CC1 (stereo not drawn)
Protein skinhead-1
  IC50: > 100 µM (inactive)

## CCCCCn1c(N)c(C(=O)NCCN2CCOCC2)c2nc3ccccc3nc21
Protein skinhead-1
  IC50: > 100 µM (inactive)

## O=C(Nc1nc(-c2ccc(S(=O)(=O)N3CCCC3)cc2)cs1)c1ccco1
Fatty acid synthase
  IC50: 4.05 µM (active)

## CSC1=N/C(=C\c2ccccc2F)C(=O)S1
[2]
  IC50: 24.7 µM (not active)

## CCn1c2ccccc2c2cc(NC(=O)CSc3nnc(-c4ccc(OC)c(OC)c4)n3N)ccc21
[3]
  CC50: > 50 µM (active)
Protein skinhead-1
  IC50: > 100 µM (inactive)
Cytochrome P450 2C9
  AC50: 22.4 µM (inconclusive)

## c1ccc(-c2cc3c(N4CCOCC4)ncnc3s2)cc1
Protein skinhead-1
  IC50: > 100 µM (inactive)

## Cc1c(N=N/C(C#N)=C(\O)c2ccccc2)c(=O)n(-c2ccccc2)n1C
[4]
  EC50: 2.43 µM (active)
Streptococcus
  EC50: 7.26 µM (active)
Nonstructural protein 1
  IC50: 8.08 µM (active)

## O=C(/C=C/c1ccc(Cl)cc1Cl)Nc1ccc(CN2CCOCC2)cc1
Protein skinhead-1
  IC50: 27 µM (active)

## COc1cc(/C=C(\C#N)c2ccccn2)cc(OC)c1O
Large T antigen
  IC50: 14.5 µM (active)

## O=C(CSc1n[nH]c(-c2ccccn2)n1)Nc1ccccc1
[5]
  EC50: > 120 µM (not active)
[6]
  EC50: > 120 µM (not active)
[7]
  EC50: > 120 µM (not active)
Nonstructural protein 1
  IC50: 5.02 µM (active)

## Cc1occc1-c1nnc(-c2cc([N+](=O)[O-])cc([N+](=O)[O-])c2)o1
[8]
  EC50: 277 nM (active)
[9]
  EC50: > 60 µM (not active)
cells
  IC50: 1.37 µM (active)
[10]
  AC50: 2.74 µM (active)

## COc1ccc(N2CCN(C(=O)C3CCC(Cn4c(=S)[nH]c5ccccc5c4=O)CC3)CC2)cc1 (stereo not drawn)
Nonstructural protein 1
  IC50: > 100 µM (active)
[11]
  AC50: 10 µM (active)

## O=C1CC(=O)c2c1cccc2[N+](=O)[O-]
[2]
  IC50: 3.52 µM (active)

## O=C(Nc1ccc(Cl)cc1Cl)C1=Cc2ccccc2OC1
Protein skinhead-1
  IC50: > 100 µM (inactive)

## O=C(NCCCCc1ccccc1)C1CC(c2ccccc2[N+](=O)[O-])=NO1 (stereo not drawn)
[2]
  IC50: 7.55 µM (not active)
Cytochrome P450 3A4
  AC50: 14.1 µM (inconclusive)
Cytochrome P450 2C9
  AC50: 31.6 µM (inconclusive)

## Cn1c(=O)c(C(=O)COC(=O)c2cc(-c3ccco3)nc3ccccc23)c(N)n(Cc2ccccc2)c1=O
[2]
  IC50: 2.02 µM (active)

## O=C(Nc1ccc(N2CCOCC2)cc1)Nc1ccc(Cl)c(Cl)c1
[2]
  IC50: 19.5 µM (not active)

## C[C@@H]1CCCCO[C@H](CN(C)C(=O)Nc2ccc(C(F)(F)F)cc2)[C@@H](C)CN([C@H](C)CO)C(=O)c2cc(NC(=O)Nc3ccc4c(c3)OCO4)ccc2O1
[12]
  AC50: 1.68 µM (active)

## C[C@H]1CN([C@@H](C)CO)C(=O)Cc2cc(NC(=O)Nc3cccc4ccccc34)ccc2O[C@@H]1CN(C)Cc1ccc2c(c1)OCO2
[12]
  AC50: 5.35 µM (active)

## C[C@@H]1CN([C@H](C)CO)C(=O)c2cccc(NC(=O)NC3CCCCC3)c2O[C@@H]1CN(C)Cc1ccc(C(=O)Nc2ccccc2N)cc1
[12]
  AC50: 3.74 µM (active)

## C[C@H]1CN([C@@H](C)CO)C(=O)Cc2cc(NC(=O)Cc3cn(C)c4ccccc34)ccc2O[C@H]1CN(C)Cc1ccc(C(=O)Nc2ccccc2N)cc1
[12]
  AC50: 2 µM (active)

## O=C(NCc1cccs1)c1csc([C@@H]2O[C@H](CO)[C@H](O)[C@H](O)[C@H]2O)n1
Protein skinhead-1
  IC50: > 100 µM (inactive)

## CC(C)NC(=O)Nc1cccc2c1O[C@H](CN(C)CC1CCCCC1)[C@@H](C)CN([C@H](C)CO)C2=O
[12]
  AC50: 8.41 µM (active)

## C[C@@H]1CN([C@@H](C)CO)C(=O)Cc2cc(NC(=O)Nc3ccc(C(F)(F)F)cc3)ccc2O[C@@H]1CN(C)Cc1ccncc1
[12]
  AC50: 3.57 µM (active)

## COc1ccc(S(=O)(=O)Nc2ccc3c(c2)CC(=O)N([C@@H](C)CO)C[C@@H](C)[C@@H](CN(C)Cc2ccc(Cl)c(Cl)c2)O3)cc1
[12]
  AC50: 4.36 µM (active)

## Cc1noc(C)c1S(=O)(=O)Nc1ccc2c(c1)C(=O)N([C@H](C)CO)C[C@H](C)[C@@H](CN(C)Cc1ccc(C(=O)Nc3ccccc3N)cc1)OCCCC[C@@H](C)O2
[12]
  AC50: 2.18 µM (active)

## Cc1ccc(S(=O)(=O)N(C)C[C@H]2Oc3c(NC(=O)Nc4ccc(C(F)(F)F)cc4)cccc3C(=O)N([C@@H](C)CO)C[C@H]2C)cc1
[12]
  AC50: 1.55 µM (active)

## Cc1ccc(S(=O)(=O)N(C)C[C@@H]2Oc3ccc(NC(=O)C4CCCCC4)cc3CC(=O)N([C@H](C)CO)C[C@@H]2C)cc1
[13]
  AC50: < 260 nM (active)
[14]
  AC50: 574 nM (active)
[11]
  AC50: 2.14 µM (active)

## C[C@H]1CN([C@@H](C)CO)C(=O)c2c(c3ccccc3n2C)-c2ccccc2CO[C@H]1CN(C)C(=O)C1CC1
[13]
  AC50: 362 nM (active)
[14]
  AC50: 462 nM (active)
[11]
  AC50: 1.18 µM (active)

## CC(C)C#Cc1ccc([C@@H]2[C@@H](CO)N3C(=O)CN(C(=O)C4CCCCC4)C[C@@H]23)cc1
[15]
  AC50: 7.36 µM (active)

## COc1ccccc1CNC(=O)C[C@H]1C[C@@H]2c3cc(NC(=O)Nc4ccc(C(F)(F)F)cc4)ccc3O[C@@H]2[C@H](CO)O1
[15]
  AC50: 6.78 µM (active)

## CCS(=O)(=O)N1CCC2(CC1)CN(Cc1ccc3c(c1)OCO3)[C@@H](CO)c1[nH]c3cc(OC)ccc3c12
[15]
  AC50: 8.27 µM (active)

## c1ccc(OCc2nc3ccccc3s2)cc1 [2-(PHENOXYMETHYL)BENZOTHIAZOLE]
Protein skinhead-1
  IC50: 29.5 µM (active)

## CC1Oc2cc3oc4c(O)c(O)ccc4c(=O)c3c(O)c2C1(C)C (stereo not drawn) [TOXYLOXANTHONE C]
[16]
  EC50: > 150 µM (inactive)
[4]
  EC50: 5.91 µM (active)
Streptokinase A
  EC50: > 150 µM (not active)
[17]
  EC50: > 38 µM (not active)
Streptococcus
  EC50: 8.07 µM (active)
[10]
  AC50: 38 µM (active)
